System: beet armyworm
Test: Field trial against beet armyworm on cabbage
Type: in vivo, Laphygma exigua
Experimental: The trial was carried out in rain shelter area of experimental field of Wuhan vegetable research institute, the test crop is cabbage (variety: Jingfeng NO. 1). The dosage of the invention compound 1 (Example 11, 10% EC, same as below) are 75, 105, 150 g a.i./hm^2. and the comparative agent pyridalyl (10% EC, commercially available, same as below) is 105 g a.i./hm^2. The agent was applied on 9 Oct. 2011. The application tool is Linong 16HD-400 type backpack spray. Evenly spraying to whole cabbage which is in rosette stage was conducted. Beet armyworm is mainly larvae. The plot area is 25 m^2 and 4 replicates and randomized block arrangement were set. The amount of spray liquid is 750 L/hm^2. It was sunny and there was no wind, with the highest temperature of 28° C. and the lowest of 15° C. on the day of the application. Chosen 10 plants from each plot and scored the larvae at different instars at fixing time. The base number was investigated before treatment. The number of living larvae was counted after 1 day, 3 days, 7 days and 14 days respectively after application and control efficacy was calculated.
Calculation Method: Decrease rate of insects (%)=(the number of insects before application−the number of insects after application) the number of insects before application×100 Control efficacy (%)=(decrease rate of insects in treated area decrease rate of insects in blank comparative area)/(100−decrease rate of insects in blank comparative area)×100

FC(F)(F)c1ccc(Oc2ccc(OCCCOc3c(Cl)cc(OCC=C(Cl)Cl)cc3Cl)cc2)nc1 [Compound 1]
Control efficiency (%) (75 g a.i./hm^2, 10% EC, 1 day after treatment): 63.18% | Control efficiency (%) (75 g a.i./hm^2, 10% EC, 3 days after treatment): 86.14% | Control efficiency (%) (75 g a.i./hm^2, 10% EC, 7 days after treatment): 80.51% | Control efficiency (%) (75 g a.i./hm^2, 10% EC, 14 days after treatment): 73.51% | Control efficiency (%) (105 g a.i./hm^2, 10% EC, 1 day after treatment): 69.20% | Control efficiency (%) (105 g a.i./hm^2, 10% EC, 3 days after treatment): 92.30% | Control efficiency (%) (105 g a.i./hm^2, 10% EC, 7 days after treatment): 86.19% | Control efficiency (%) (105 g a.i./hm^2, 10% EC, 14 days after treatment): 83.69% | Control efficiency (%) (150 g a.i./hm^2, 10% EC, 1 day after treatment): 71.17% | Control efficiency (%) (150 g a.i./hm^2, 10% EC, 3 days after treatment): 94.09% | Control efficiency (%) (150 g a.i./hm^2, 10% EC, 7 days after treatment): 90.45% | Control efficiency (%) (150 g a.i./hm^2, 10% EC, 14 days after treatment): 88.42%

Source: patent US8969332B2, “Aryloxy dihalopropenyl ether compounds and uses thereof” (Sinochem Corporation, priority 2011, dated 2015)
